Test results from US7045361B2, “Analyte sensing via acridine-based boronate biosensors” (Medtronic MiniMed, Inc., priority 2001, dated 2006).

Legend:
[1] = Comparative analysis of the spectral properties of fluorophores; format: physicochemical; settings: for λem(max) / λex / λem(50% max): PBS containing 0.5% DMSO at 21° C; for λem(50% max): bathochromic wavelength at 50% of maximum
From the text: A comparative analysis of the spectral properties of certain fluorophores is shown Table 1. […] This phenomenon is unexpected given the chemical similarity between anthracene and an acridine. As shown in the Table 1, the acridine orange fluorophore emits at even longer wavelengths.

[2] = Glucose transduction of monotopic acridine-based boronate biosensor molecules by fluorescence spectroscopy; settings: for wavelength of maximum intensity (Imax): PBS with DMSO
Description: Glucose transduction of particular acridine-based boronate bio sensor molecules was observed using fluorescence spectroscopy. Fluorescence measurements were taken on a Yorbin Fluorolog instrument. […]
Aliquots of glucose were added and responses were measured at 436 nm, or maximum intensity. (See Table 3).
Another transduction experiment was performed with ACRAB at 500 nm, or approximately 25% of the value of maximum intensity. The data taken at 500 nm generally parallel those taken at 436 nm, thus indicating no decrease in performance of the acridine-based boronate biosensor molecule at the longer wavelength. This shift of 83 nm is very significant in that it provides about a 10-fold increase of transmission of light through tissue and skin.
MEACRAB was then diluted 100-fold to 100 nM and transduction at conditions of ambient temperature. The solution contained 0.5% DMSO.

[3] = Emission spectra in presence and absence of glucose (FIG. 14A/14B transduction experiment)
From the text: FIG. 14A depicts the results of a transduction experiment with anthracene boronate.
FIG. 14B depicts the results of a transduction experiment with methylacridine boronate (MEACRAB) in the presence of glucose.
A comparison of anthracene boronate and methylacridine boronate (MEACRAB) in the presence and absence of glucose further highlights the unexpected differences between these two fluorescent molecules in terms of their respective fluorescent properties, such as transduction of glucose at longer wavelengths, i.e., glucose sensing capacity as indicated by a change in fluorescence in the presence of glucose at longer wavelengths. These differences are illustrated in FIG. 14A and FIG. 14B, which depicts the emission spectra of anthracene boronate and methylacridine boronate, respectively in the presence and absence of glucose. From inspection of FIG. 14A, it can be observed that at about 440 nm, which is about at a peak of next to maximum intensity, anthracene boronate yields about 25% transduction in the presence of glucose. […] For instance, at about 500 nm, methylacridine boronate yields about 25% transduction in the presence of glucose. Thus, the ability of an acridine boronate, such as methylacridine boronate, to transduce in the presence of glucose at longer wavelengths, as compared with anthracene boronate, is unexpected. […]

With c1ccc2cc3ccccc3cc2c1 [Anthracene] the “λem(max)” value [1] was 417 nm, the λex [1] was 370 nm and the “λem(50% max)” value [1] was 428 nm. The “emission intensity at about 480 nm relative to intensity of maximum emission wavelength” value [1] was “no detectable emission”.
Cc1ccc2nc3ccccc3c(CN(CCCCCO)Cc3ccccc3B(O)O)c2c1 [MEACRAB, aminomethylhydroxypentyl-methylacridine boronate] showed a Transduction ([2]; 100 nM, 0.5% DMSO, ambient temperature, 509 nm, glucose 87 mg/dL) of 21%, a Transduction ([2]; 100 nM, 0.5% DMSO, ambient temperature, 509 nm, glucose 173 mg/dL) of 29% and a Transduction ([2]; 100 nM, 0.5% DMSO, ambient temperature, 509 nm, glucose 256 mg/dL) of 53%. It also gave a Transduction ([2]; 100 nM, 0.5% DMSO, ambient temperature, 509 nm, glucose 341 mg/dL) of 77%, a Transduction ([2]; 100 nM, 0.5% DMSO, ambient temperature, 509 nm, glucose 425 mg/dL) of 94% and a Transduction ([2]; 100 nM, 0.5% DMSO, ambient temperature, 509 nm, glucose 510 mg/dL) of 109%. It also gave a Transduction ([2]; 100 nM, 0.5% DMSO, ambient temperature, 509 nm, glucose 603 mg/dL) of 118%, a Transduction ([2]; 100 nM, 0.5% DMSO, ambient temperature, 509 nm, glucose 683 mg/dL) of 121% and a Transduction ([2]; 100 nM, 0.5% DMSO, ambient temperature, 509 nm, glucose 767 mg/dL) of 126%. For the same compound, the Transduction ([2]; 100 nM, 0.5% DMSO, ambient temperature, 509 nm, glucose 834 mg/dL) was 134%, the Transduction ([2]; 100 nM, 0.5% DMSO, ambient temperature, 509 nm, glucose 927 mg/dL) was 142% and the Transduction ([2]; 100 nM, 0.5% DMSO, ambient temperature, 509 nm, glucose 1012 mg/dL) was 158%. It also gave a Transduction ([2]; 10 μM in PBS, 4% DMSO, 500 nm, glucose 93 mg/dL) of 30%, a Transduction ([2]; 10 μM in PBS, 4% DMSO, 500 nm, glucose 184 mg/dL) of 60% and a Transduction ([2]; 10 μM in PBS, 4% DMSO, 500 nm, glucose 275 mg/dL) of 100%. It also gave a Transduction ([2]; 10 μM in PBS, 4% DMSO, 500 nm, glucose 364 mg/dL) of 120%, a Transduction ([2]; 10 μM in PBS, 4% DMSO, 500 nm, glucose 459 mg/dL) of 170% and a Transduction ([2]; 10 μM in PBS, 4% DMSO, 500 nm, glucose 547 mg/dL) of 190%. The Transduction ([2]; 10 μM in PBS, 4% DMSO, 500 nm, glucose 650 mg/dL) was 220%, the “intensity at 500 nm relative to the value of maximum intensity” value ([2]; 500 nm) was 25% and the “wavelength of maximum intensity (Imax)” value [2] was 438 nm. For the same compound, the “performance at 100 nM compared with ACRAB, or MEACRAB itself, at 10 μM” value ([2]; emission wavelength of 500 nm, 0.5% DMSO) was “performed better”, the “transduction in the presence of glucose” value ([3]; at about 440 nm) was “about 50%” and the “transduction in the presence of glucose” value ([3]; at about 500 nm) was “about 25%”.
For CN(C)c1ccc2cc3ccc(N(C)C)cc3nc2c1 [Acridine Orange, 3,6-bis(dimethylamino)acridine], the “emission profile detectable out to” value [1] was 575–600 nm, the maximum emission [1] was 525 nm and the “λem(max)” value [1] was 526 nm. For the same compound, the λex [1] was 493 nm and the “λem(50% max)” value [1] was 567 nm.
In the case of c1ccc2nc3ccccc3cc2c1 [Acridine], the “λem(max)” value [1] is reported as 428 nm, the λex [1] is reported as 360 nm and the “λem(50% max)” value [1] is reported as 480 nm. For the same compound, the “emission intensity at about 480 nm relative to intensity of maximum emission wavelength” value [1] was “approximately 50%”.
With “aminomethylhydroxypentyl-acridine boronate [ACRAB]” the “intensity at 500 nm relative to the value of maximum intensity” value ([2]; 500 nm) was “approximately 25%”, the Transduction ([2]; 500 nm, glucose 49 mg/dL) was 11% and the Transduction ([2]; 500 nm, glucose 149 mg/dL) was 24%. For the same compound, the Transduction ([2]; 500 nm, glucose 198 mg/dL) was 37%, the Transduction ([2]; 500 nm, glucose 284 mg/dL) was 47% and the Transduction ([2]; 500 nm, glucose 374 mg/dL) was 56%. The Transduction ([2]; 500 nm, glucose 441 mg/dL) was 62%, the Transduction ([2]; 500 nm, glucose 559 mg/dL) was 67% and the “wavelength of maximum intensity (Imax)” value [2] was 436 nm. The Transduction ([2]; approx 10 μM, PBS pH 7.4, 0.5% DMSO, 436 nm, glucose 50 mg/dL) was 15%, the Transduction ([2]; approx 10 μM, PBS pH 7.4, 0.5% DMSO, 436 nm, glucose 150 mg/dL) was 27% and the Transduction ([2]; approx 10 μM, PBS pH 7.4, 0.5% DMSO, 436 nm, glucose 200 mg/dL) was 41%. The Transduction ([2]; approx 10 μM, PBS pH 7.4, 0.5% DMSO, 436 nm, glucose 300 mg/dL) was 48%.
